One experiment concerns the target D(2) dopamine receptor (Homo sapiens, UniProt P14416).
For the next experiment, the target named is T1, D(4) dopamine receptor (Homo sapiens, UniProt P21917).
T1 sequence (P21917 whole entry): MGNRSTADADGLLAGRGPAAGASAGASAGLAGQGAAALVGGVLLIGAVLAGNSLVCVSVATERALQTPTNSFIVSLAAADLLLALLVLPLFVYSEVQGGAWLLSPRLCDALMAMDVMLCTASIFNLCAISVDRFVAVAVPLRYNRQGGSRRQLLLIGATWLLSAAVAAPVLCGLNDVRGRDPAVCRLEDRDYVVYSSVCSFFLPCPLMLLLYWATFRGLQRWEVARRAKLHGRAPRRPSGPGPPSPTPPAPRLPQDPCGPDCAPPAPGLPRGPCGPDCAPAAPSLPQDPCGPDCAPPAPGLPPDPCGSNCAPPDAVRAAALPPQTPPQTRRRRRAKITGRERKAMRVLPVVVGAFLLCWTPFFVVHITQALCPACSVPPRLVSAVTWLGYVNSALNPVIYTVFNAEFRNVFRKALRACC

Chain of D(2) dopamine receptor (P14416 whole entry): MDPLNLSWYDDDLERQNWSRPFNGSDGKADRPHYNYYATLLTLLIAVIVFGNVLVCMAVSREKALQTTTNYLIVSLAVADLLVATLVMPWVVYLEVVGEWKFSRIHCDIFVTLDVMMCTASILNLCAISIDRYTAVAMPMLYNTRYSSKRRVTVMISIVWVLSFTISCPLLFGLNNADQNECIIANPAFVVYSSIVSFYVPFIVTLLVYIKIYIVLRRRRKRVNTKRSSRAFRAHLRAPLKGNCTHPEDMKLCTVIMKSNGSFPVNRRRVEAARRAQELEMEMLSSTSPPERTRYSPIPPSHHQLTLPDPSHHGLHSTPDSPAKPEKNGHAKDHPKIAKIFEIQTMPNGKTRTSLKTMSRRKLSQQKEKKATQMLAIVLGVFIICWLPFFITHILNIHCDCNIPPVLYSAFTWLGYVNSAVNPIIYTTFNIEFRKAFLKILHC

In the case of `CCCN(CCC)C1C=Cc2c(OC)cccc2C1C` (configuration not stated) [CAS_5311190], the inhibition constant Ki on D(2) dopamine receptor came out at 29.4 nM; on D(4) dopamine receptor, 66.5 nM. `CCCN1CCCC(c2cccc(O)c2)C1` (configuration not stated) [CAS_85976-54-1]: the Ki on D(4) dopamine receptor stood at 546 nM. The same measure, in the same setting: the same measure for `CSc1ccc2c(c1)N(CC[C@@H]1CCCCN1C)c1ccccc1S2` [10-[2-(1-Methyl-piperidin-2-yl)-ethyl]-2-methylsulfanyl-10H-phenothiazine (thioridazine)]: 22.9 nM. In the case of `O=C(O)c1ccccc1C(=O)Nc1cccc2ccccc12` [NPA,(+)], the Ki was 291 nM at D(2) dopamine receptor and 120 nM at D(4) dopamine receptor. `CN1CCN(C2=Nc3ccccc3Oc3ccc(Cl)cc32)CC1` [13-chloro-10-(4-methylpiperazin-1-yl)-2-oxa-9-azatricyclo[9.4.0.0^{3,8}]pentadeca-1(11),3,5,7,9,12,14-heptaene] registered an inhibition constant (Ki) at D(4) dopamine receptor of 29 nM. In the case of `CCCN[C@@H]1CCc2c(OC)cccc2[C@@H]1C`, the inhibitory constant (Ki) came to 120 nM on D(2) dopamine receptor and 132 nM on D(4) dopamine receptor.

In the case of `CCCOc1ccc2nc(NC(=O)OC)[nH]c2c1` [SMR000058208], at D(4) dopamine receptor, the affinity corresponds to a Ki of 152 nM. On the same count and under the same terms, then `CCN1CCC[C@H]1CNC(=O)c1c(O)c(Cl)cc(Cl)c1OC` [3,5-Dichloro-N-(1-ethyl-pyrrolidin-2-ylmethyl)-2-hydroxy-6-methoxy-benzamide (raclopride)], with 1340 nM; and `CC1CCN(CCCC(=O)c2ccc(F)cc2)CC1` [CAS_3575-80-2], with 139 nM. Turning to `CN1CCN(CCCN2c3ccccc3Sc3ccc(C(F)(F)F)cc32)CC1`, at D(2) dopamine receptor, the Ki worked out at 1.1 nM. Consider `CCN(CC)C(=O)N[C@H]1C[C@@H]2c3cccc4[nH]cc(c34)C[C@H]2N(C)C1`, for which the Ki is 0.7 nM on D(2) dopamine receptor and 5.2 nM on D(4) dopamine receptor. With `CN1C[C@@H](NC(=O)C(C)(C)C)CC2c3cccc4[nH]c(Cl)c(c34)C[C@H]21` (some centres not stated) [SDZ-208-912], the Ki at D(2) dopamine receptor came out at 0.9 nM; on D(4) dopamine receptor, 3.5 nM.

As a reminder, the Ki is the dissociation constant of the complex between target and ligand, obtained from inhibition or displacement. Higher therefore signals a looser hold on the target.

(Values after BindingDB's records for doi:10.1016/0014-2999(93)90488-4 (Maryland Psychiatric Research Center, 1993).)
